Laboratory results: patent US10695341B2, “Compositions and methods for treating endometriosis” (UNIVERSITY OF SOUTH FLORIDA, priority 2014, dated 2020)

Tests used:
[1] = tested on: LC3B-II; assay: Western blot for LC3B, T-HESC cells, HCQ; assay type: cell-based, human; settings: 25 μM HCQ, 18 hours
[2] = tested on: endometriotic lesions; assay: Effect of hydroxychloroquine on lesion formation in mouse endometriosis model (Example 3); assay type: in vivo, C57BL/6 mice; settings: 60 mg/kg intraperitoneal, lesions evaluated 14 days after start; P between groups 0.0019
Experimental: To determine the effect of hydroxychloroquine on endometriosis in vivo, mice (6-8 week old C57BL/6 background mice) were fed on a mouse diet and given ad libitum access to water and kept on a light/dark cycle of 12/12 h under controlled conditions. Prior to any invasive procedure, the mice were anesthetized using Isofluorane (initial vaporizer flow rate of 3-5%) implemented once prior to an invasive procedure. The mice were also given Ketoprofen (10 mg/kg) subcutaneously as a post-operative analgesic agent for the first 24 hours and then as needed. All surgical procedures were performed under sterile conditions. Mice were ordered at 3-5 weeks of age to receive them and allow them to acclimate to the housing conditions prior to the start of the investigation when the mice are about 6 to about 8 weeks of age. […] The fragments were suspended in about 0.6 ml of phosphate buffered saline and were injected with an 18-gauge needle through the abdominal wall below the umbilicus into the peritoneal cavity of recipient mice with a ratio of one donor to two recipients (equivalent quantities). […] Lesions were identified, removed, and analyzed. […]

[3] = tested on: LC3B-II; assay: Western blot of LC3B in other organs of treated mice; assay type: in vivo, mouse; settings: 5 HCQ-treated vs 5 PBS-treated mice
Experimental: Tissues used for protein analyses included uterine horns, ectopic lesions, ovaries, thymus, kidneys, heart, pancreas, spleen, and liver. Samples were flash frozen in liquid nitrogen and stored at -80° C. until use. Tissues were homogenized in ice-cold lysis buffer containing 1% Triton X-100, 50 mM HEPES, 150 mM NaCl, 1 mM MgCl2, 1 mM EGTA, 10% glycerol, and protease inhibitor cocktail (Roche, Indianapolis, Ind.) using a PowerGen 125 homogenizer (Fisher Scientific, Pittsburgh, Pa.). Samples were centrifuged at 14,000 rpm for 10 min at 4° C. The supernatants were collected and total protein concentration was determined using the BCA assay (ThermoScientific, Rockford, Ill.), and a Bio Tek synergy 2 microplate reader (Winooski, Vt.). Samples were normalized and then run onto 10 or 12% SDS-polyacrylamide gels prepared in a Criterion® Cassette system (Bio-Rad, Hercules, Calif.) as previously described. The following antibodies and dilutions were used: LC3B rabbit polyclonal (#2775, 1:1,000), LC3A rabbit monoclonal (#4599 ([…]), 1:1,000), Beclin-1 rabbit polyclonal (#3738, 1:1,000), GABARAPL1 rabbit monoclonal (#13733 (E1J4E), 1:1,000), AMPKα rabbit monoclonal (#2603 (23A3), 1:500), FOXO1 rabbit monoclonal (#2880 (C29H4), 1:1,000), and Pan-Actin rabbit polyclonal (#4968, 1:500) were all obtained from Cell Signaling Technology (Danvers, Mass.). […]

[4] = tested on: G-CSF, eotaxin, and IP-10; assay: Peritoneal fluid cytokine/chemokine magnetic bead panel; assay type: in vivo, mouse
Experimental: After animals were euthanized, 1 ml of sterile PBS was injected into the peritoneal cavity, the abdominal area was gently massaged, and the fluid collected. The collected fluid was centrifuged at 1,390 rpm for 5 min at 4° C. and the resulting supernatant was then stored at −80° C. Levels of chemokines and cytokines were analyzed using a MCYTOMAG-70K-PX32 (Millipore, Billerica, Mass.) following manufacturer's instructions. Briefly, 200 μl of wash buffer was added to each well and incubated for 10 min at room temperature in a plate shaker. After incubation, the wash buffer was decanted and the plate was inverted and tapped on absorbent towel several times. Then, 25 μl of assay buffer was added to each well followed by 25 μl of concentration standards, assay controls, or samples. The premixed bottle was vortexed and 25 μl of the beads were added to each well. The plate was incubated overnight at 4° C., protected from light. Then the plate was incubated for 1 min on the hand-held magnet and the well content was gently decanted and tapped on absorbent pads. Each well was washed twice using 200 μl of wash buffer, followed by the incubation on the hand-held magnet. Antibody detection solution was allowed to warm to room temperature, and then 25 μl was added to each well and incubated for 1 h at room temperature on a plate shaker, protected from light. Next, 25 μl of Streptavidin-Phycoerythrin was added to each well containing the detection antibodies and incubated for 30 min at room temperature protected from light on a plate shaker. After the incubation, the plate was washed twice as previously described and 150 μl of Sheath Fluid was added to each well. The plate was analyzed using MAGPIX™ instrument and xPONENT software solutions, version 4.2.

[5] = HCQ-treated vs PBS-treated mice

## CCN(CCO)CCCC(C)Nc1ccnc2cc(Cl)ccc12 (stereo not shown) [HCQ, hydroxychloroquine]
[1]
  LC3B-II protein in T-HESC cells: increase
[2]
  effect on endometriotic lesions (FIG. 5): effectiveness
[3]
  LC3B-II expression in heart: showed differences
  LC3B-II expression in lung: showed differences
[4]; HCQ-treated (n=5) vs PBS-treated mice, p=0.0079
  IP-10 in peritoneal fluid: significantly increased
[4]; [5]
  G-CSF in peritoneal fluid: remained unchanged
  eotaxin in peritoneal fluid: remained unchanged
